Test results published in patent publication US8192962B2, “Processes for detecting toxic substances” (Daikin Industries, Ltd., priority 2001, dated 2012).

System: Stress protein genes
Assay: DNA chip mRNA expression in yeast, stress protein genes (Table 6)
Format: cell-based, Saccharomyces cerevisiae S288C
How it was run: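 Cells were grown at 25° C. in YPD, treated at logarithmic phase for 2 h with a chemical at a concentration inhibiting growth but not causing death, and compared with untreated cultures. Labeled cDNA was hybridized to a DNA chip carrying all yeast genes, and the expression ratio was taken from scanner fluorescence.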

Structure (SMILES): S=C([S-])NCCNC(=S)[S-].[Zn+2] [(11), zinc N,N′-ethylenebis(dithiocarbamate)]
- The level of expressed mRNA in the presence of chemical substance/The level of expressed mRNA in the absence of chemical substance (yeast gene YAL005C): 1.0
- The level of expressed mRNA in the presence of chemical substance/The level of expressed mRNA in the absence of chemical substance (yeast gene YAL015C): 1.4
- The level of expressed mRNA in the presence of chemical substance/The level of expressed mRNA in the absence of chemical substance (yeast gene YBL075C): 1.6
- The level of expressed mRNA in the presence of chemical substance/The level of expressed mRNA in the absence of chemical substance (yeast gene YBL093C): 1.3
- The level of expressed mRNA in the presence of chemical substance/The level of expressed mRNA in the absence of chemical substance (yeast gene YBR044C): 1.1
- The level of expressed mRNA in the presence of chemical substance/The level of expressed mRNA in the absence of chemical substance (yeast gene YBR054W): 1.8
- The level of expressed mRNA in the presence of chemical substance/The level of expressed mRNA in the absence of chemical substance (yeast gene YBR067C): 3.1
- The level of expressed mRNA in the presence of chemical substance/The level of expressed mRNA in the absence of chemical substance (yeast gene YBR072W): 6.3
- The level of expressed mRNA in the presence of chemical substance/The level of expressed mRNA in the absence of chemical substance (yeast gene YBR126C): 1.1
- The level of expressed mRNA in the presence of chemical substance/The level of expressed mRNA in the absence of chemical substance (yeast gene YBR169C): 2.2
- The level of expressed mRNA in the presence of chemical substance/The level of expressed mRNA in the absence of chemical substance (yeast gene YCL035C): 2.1
- The level of expressed mRNA in the presence of chemical substance/The level of expressed mRNA in the absence of chemical substance (yeast gene YCR021C): 0.6
- The level of expressed mRNA in the presence of chemical substance/The level of expressed mRNA in the absence of chemical substance (yeast gene YCR060W): 1.2
- The level of expressed mRNA in the presence of chemical substance/The level of expressed mRNA in the absence of chemical substance (yeast gene YCR083W): 1.8
- The level of expressed mRNA in the presence of chemical substance/The level of expressed mRNA in the absence of chemical substance (yeast gene YDL022W): 2.8
- The level of expressed mRNA in the presence of chemical substance/The level of expressed mRNA in the absence of chemical substance (yeast gene YDL025C): 1.5
- The level of expressed mRNA in the presence of chemical substance/The level of expressed mRNA in the absence of chemical substance (yeast gene YDR033W): 0.7
- The level of expressed mRNA in the presence of chemical substance/The level of expressed mRNA in the absence of chemical substance (yeast gene YDR077W): 6.8
- The level of expressed mRNA in the presence of chemical substance/The level of expressed mRNA in the absence of chemical substance (yeast gene YDR098C): 1.4
- The level of expressed mRNA in the presence of chemical substance/The level of expressed mRNA in the absence of chemical substance (yeast gene YDR155C): 3.8
- The level of expressed mRNA in the presence of chemical substance/The level of expressed mRNA in the absence of chemical substance (yeast gene YDR258C): 1.7
- The level of expressed mRNA in the presence of chemical substance/The level of expressed mRNA in the absence of chemical substance (yeast gene YDR293C): 1.1
- The level of expressed mRNA in the presence of chemical substance/The level of expressed mRNA in the absence of chemical substance (yeast gene YDR436W): 2.0
- The level of expressed mRNA in the presence of chemical substance/The level of expressed mRNA in the absence of chemical substance (yeast gene YDR513W): 2.0
- The level of expressed mRNA in the presence of chemical substance/The level of expressed mRNA in the absence of chemical substance (yeast gene YDR519W): 1.2
- The level of expressed mRNA in the presence of chemical substance/The level of expressed mRNA in the absence of chemical substance (yeast gene YEL030W): 1.7
- The level of expressed mRNA in the presence of chemical substance/The level of expressed mRNA in the absence of chemical substance (yeast gene YEL039C): 1.7
- The level of expressed mRNA in the presence of chemical substance/The level of expressed mRNA in the absence of chemical substance (yeast gene YER042W): 1.8
- The level of expressed mRNA in the presence of chemical substance/The level of expressed mRNA in the absence of chemical substance (yeast gene YER057C): 1.8
- The level of expressed mRNA in the presence of chemical substance/The level of expressed mRNA in the absence of chemical substance (yeast gene YER103W): 1.8
- The level of expressed mRNA in the presence of chemical substance/The level of expressed mRNA in the absence of chemical substance (yeast gene YER125W): 1.0
- The level of expressed mRNA in the presence of chemical substance/The level of expressed mRNA in the absence of chemical substance (yeast gene YFL014W): 5.0
- The level of expressed mRNA in the presence of chemical substance/The level of expressed mRNA in the absence of chemical substance (yeast gene YFL016C): 1.2
- The level of expressed mRNA in the presence of chemical substance/The level of expressed mRNA in the absence of chemical substance (yeast gene YFL020C): 1.2
- The level of expressed mRNA in the presence of chemical substance/The level of expressed mRNA in the absence of chemical substance (yeast gene YFR052W): 0.9
- The level of expressed mRNA in the presence of chemical substance/The level of expressed mRNA in the absence of chemical substance (yeast gene YGL073W): 0.8
- The level of expressed mRNA in the presence of chemical substance/The level of expressed mRNA in the absence of chemical substance (yeast gene YGL115W): 1.0
- The level of expressed mRNA in the presence of chemical substance/The level of expressed mRNA in the absence of chemical substance (yeast gene YGL181W): 1.2
- The level of expressed mRNA in the presence of chemical substance/The level of expressed mRNA in the absence of chemical substance (yeast gene YGR088W): 3.9
- The level of expressed mRNA in the presence of chemical substance/The level of expressed mRNA in the absence of chemical substance (yeast gene YHL028W): 0.7
- The level of expressed mRNA in the presence of chemical substance/The level of expressed mRNA in the absence of chemical substance (yeast gene YHL046C): 0.4
- The level of expressed mRNA in the presence of chemical substance/The level of expressed mRNA in the absence of chemical substance (yeast gene YHR030C): 1.5
- The level of expressed mRNA in the presence of chemical substance/The level of expressed mRNA in the absence of chemical substance (yeast gene YHR057C): 1.6
- The level of expressed mRNA in the presence of chemical substance/The level of expressed mRNA in the absence of chemical substance (yeast gene YHR104W): 2.6
- The level of expressed mRNA in the presence of chemical substance/The level of expressed mRNA in the absence of chemical substance (yeast gene YIL011W): 2.5
- The level of expressed mRNA in the presence of chemical substance/The level of expressed mRNA in the absence of chemical substance (yeast gene YIL033C): 1.8
- The level of expressed mRNA in the presence of chemical substance/The level of expressed mRNA in the absence of chemical substance (yeast gene YIR037W): 3.0
- The level of expressed mRNA in the presence of chemical substance/The level of expressed mRNA in the absence of chemical substance (yeast gene YIR038C): 3.4
- The level of expressed mRNA in the presence of chemical substance/The level of expressed mRNA in the absence of chemical substance (yeast gene YJL128C): 0.6
- The level of expressed mRNA in the presence of chemical substance/The level of expressed mRNA in the absence of chemical substance (yeast gene YJL158C): 1.9
- The level of expressed mRNA in the presence of chemical substance/The level of expressed mRNA in the absence of chemical substance (yeast gene YJL159W): 1.2
- The level of expressed mRNA in the presence of chemical substance/The level of expressed mRNA in the absence of chemical substance (yeast gene YJL165C): 1.7
- The level of expressed mRNA in the presence of chemical substance/The level of expressed mRNA in the absence of chemical substance (yeast gene YJR045C): 1.4
- The level of expressed mRNA in the presence of chemical substance/The level of expressed mRNA in the absence of chemical substance (yeast gene YJR090C): 0.4
- The level of expressed mRNA in the presence of chemical substance/The level of expressed mRNA in the absence of chemical substance (yeast gene YKL161C): 3.1
- The level of expressed mRNA in the presence of chemical substance/The level of expressed mRNA in the absence of chemical substance (yeast gene YKL163W): 1.3
- The level of expressed mRNA in the presence of chemical substance/The level of expressed mRNA in the absence of chemical substance (yeast gene YKL164C): 1.0
- The level of expressed mRNA in the presence of chemical substance/The level of expressed mRNA in the absence of chemical substance (yeast gene YKL210W): 1.4
- The level of expressed mRNA in the presence of chemical substance/The level of expressed mRNA in the absence of chemical substance (yeast gene YKR053C): 0.5
- The level of expressed mRNA in the presence of chemical substance/The level of expressed mRNA in the absence of chemical substance (yeast gene YLL024C): 1.6
- The level of expressed mRNA in the presence of chemical substance/The level of expressed mRNA in the absence of chemical substance (yeast gene YLL026W): 1.7
- The level of expressed mRNA in the presence of chemical substance/The level of expressed mRNA in the absence of chemical substance (yeast gene YLL039C): 1.1
- The level of expressed mRNA in the presence of chemical substance/The level of expressed mRNA in the absence of chemical substance (yeast gene YLL060C): 14.1
- The level of expressed mRNA in the presence of chemical substance/The level of expressed mRNA in the absence of chemical substance (yeast gene YLR006C): 1.5
- The level of expressed mRNA in the presence of chemical substance/The level of expressed mRNA in the absence of chemical substance (yeast gene YLR109W): 1.5
- The level of expressed mRNA in the presence of chemical substance/The level of expressed mRNA in the absence of chemical substance (yeast gene YLR259C): 3.0
- The level of expressed mRNA in the presence of chemical substance/The level of expressed mRNA in the absence of chemical substance (yeast gene YML007W): 1.3
- The level of expressed mRNA in the presence of chemical substance/The level of expressed mRNA in the absence of chemical substance (yeast gene YML070W): 1.5
- The level of expressed mRNA in the presence of chemical substance/The level of expressed mRNA in the absence of chemical substance (yeast gene YMR021C): 0.9
- The level of expressed mRNA in the presence of chemical substance/The level of expressed mRNA in the absence of chemical substance (yeast gene YMR173W): 3.2
- The level of expressed mRNA in the presence of chemical substance/The level of expressed mRNA in the absence of chemical substance (yeast gene YMR186W): 1.1
- The level of expressed mRNA in the presence of chemical substance/The level of expressed mRNA in the absence of chemical substance (yeast gene YNL064C): 0.9
- The level of expressed mRNA in the presence of chemical substance/The level of expressed mRNA in the absence of chemical substance (yeast gene YNL160W): 5.4
- The level of expressed mRNA in the presence of chemical substance/The level of expressed mRNA in the absence of chemical substance (yeast gene YNL241C): 3.0
- The level of expressed mRNA in the presence of chemical substance/The level of expressed mRNA in the absence of chemical substance (yeast gene YNR076W): 1.4
- The level of expressed mRNA in the presence of chemical substance/The level of expressed mRNA in the absence of chemical substance (yeast gene YOL064C): 1.0
- The level of expressed mRNA in the presence of chemical substance/The level of expressed mRNA in the absence of chemical substance (yeast gene YOL161C): 1.5
- The level of expressed mRNA in the presence of chemical substance/The level of expressed mRNA in the absence of chemical substance (yeast gene YOR008C): 1.0
- The level of expressed mRNA in the presence of chemical substance/The level of expressed mRNA in the absence of chemical substance (yeast gene YOR009W): 1.4
- The level of expressed mRNA in the presence of chemical substance/The level of expressed mRNA in the absence of chemical substance (yeast gene YOR010C): 1.2
- The level of expressed mRNA in the presence of chemical substance/The level of expressed mRNA in the absence of chemical substance (yeast gene YOR027W): 1.3
- The level of expressed mRNA in the presence of chemical substance/The level of expressed mRNA in the absence of chemical substance (yeast gene YOR208W): 1.2
- The level of expressed mRNA in the presence of chemical substance/The level of expressed mRNA in the absence of chemical substance (yeast gene YPL059W): 1.6
- The level of expressed mRNA in the presence of chemical substance/The level of expressed mRNA in the absence of chemical substance (yeast gene YPL106C): 1.3
- The level of expressed mRNA in the presence of chemical substance/The level of expressed mRNA in the absence of chemical substance (yeast gene YPL140C): 0.8
- The level of expressed mRNA in the presence of chemical substance/The level of expressed mRNA in the absence of chemical substance (yeast gene YPL194W): 0.9
- The level of expressed mRNA in the presence of chemical substance/The level of expressed mRNA in the absence of chemical substance (yeast gene YPL223C): 1.8
- The level of expressed mRNA in the presence of chemical substance/The level of expressed mRNA in the absence of chemical substance (yeast gene YPL240C): 1.0
- The level of expressed mRNA in the presence of chemical substance/The level of expressed mRNA in the absence of chemical substance (yeast gene YPR005C): 0.4
- The level of expressed mRNA in the presence of chemical substance/The level of expressed mRNA in the absence of chemical substance (yeast gene YPR026W): 1.6
